Results reported in patent EP1561465A2, “Methods of use of fluoroquinolone compounds against bacteria” (LG Life Sciences, Ltd., priority 1999, dated 2001).
Converted amounts (≈) assume the structure as drawn. Like-named read-outs stand apart in the source and are kept apart here.

What was measured:
Assay type in all cases: cell-based
Yersinia enterocolitica [1] = assay: MIC by agar dilution (NCCLS M7-A4), 288 enteropathogenic isolates, eight quinolones; details: Yersinia enterocolitica (n = 22)
Enterococcus faecium = assay: MIC by agar macrodilution (NCCLS), 373 Gram positive isolates, Athens 1998
Yersinia enterocolitica [2] = assay: MIC by agar dilution (NCCLS M7-A4), 288 enteropathogenic isolates, gemifloxacin and 15 other antimicrobials; details: Yersinia enterocolitica N= 22
Moraxella catarrhalis = assay: MIC by agar dilution (NCCLS), 411 isolates Buenos Aires 1998-99; details: Moraxella catarrhalis (n = 59)
Staphylococcus aureus [3] = assay: MIC by NCCLS reference broth microdilution, 450 respiratory tract pathogens
Staphylococcus aureus [4] = assay: MIC by NCCLS broth microdilution, 1100 Japanese clinical isolates 1997-1998; details: for MIC: Staphylococcus aureus quinolone resistant, read-out: MIC
Streptococcus pneumoniae = assay: as above; details: for MIC50 / MIC90 / MIC: Streptococcus pneumoniae; for MIC50: read-out: MIC50; for MIC90: read-out: MIC90; for MIC: Streptococcus pneumoniae quinolone resistant
Proteus vulgaris = assay: as above
Providencia rettgeri = assay: as above
[5] = 24 h, read-out: MIC (mg/L) Range
[6] = β-lactamase positive and erythromycin resistant (n = 10)
[7] = Staphylococcus aureus, Staphylococcus aureus oxacillin resistant (n=57)
[8] = Streptococcus pneumoniae amoxicillin resistant (n=40)
[9] = Streptococcus pneumoniae amoxicillin susceptible (n=35)
[10] = Streptococcus pneumoniae erythromycin resistant (n=34)
[11] = Streptococcus pneumoniae erythromycin susceptible (n=11)

Cc1c(F)c(N2CCNC(C)C2)cc2c1c(=O)c(C(=O)O)cn2C1CC1 (stereo not drawn) [Grepafloxacin, grepafloxacin]
% Susceptible (Yersinia enterocolitica [1]): 100% | MIC50 (Yersinia enterocolitica [1]): 0.03 µg/mL (≈ 0.0835 µM) | MIC90 (Yersinia enterocolitica [1]): 0.03 µg/mL (≈ 0.0835 µM) | MIC Range (Yersinia enterocolitica [1]): ≤0.015 to 0.25 µg/mL | MIC distribution (µg/ml) 0.03 (Enterococcus faecium): 0 | MIC distribution (µg/ml) 0.06 (Enterococcus faecium): 0 | MIC distribution (µg/ml) 0.125 (Enterococcus faecium): 0 | MIC distribution (µg/ml) 0.25 (Enterococcus faecium): 2 | MIC distribution (µg/ml) 0.5 (Enterococcus faecium): 4 | MIC distribution (µg/ml) 1 (Enterococcus faecium): 3 | MIC distribution (µg/ml) 2 (Enterococcus faecium): 0 | MIC distribution (µg/ml) 4 (Enterococcus faecium): 0 | MIC distribution (µg/ml) 8 (Enterococcus faecium): 1 | MIC distribution (µg/ml) 16 (Enterococcus faecium): 1 | MIC distribution (µg/ml) ≤0.015 (Enterococcus faecium): 0 | MIC distribution (µg/ml) ≥32 (Enterococcus faecium): 3 | MIC50 (Enterococcus faecium; Enterococcus faecium, n = 14 isolates, read-out: MIC50): 2 µg/mL (≈ 5.56 µM) | MIC90 (Enterococcus faecium; Enterococcus faecium, n = 14 isolates, read-out: MIC90): ≥ 32 µg/mL | MIC (Yersinia enterocolitica [2]; [5]): 0.015 to 0.25 mg/L (≈ 0.0417 to 0.696 µM) | MIC (Yersinia enterocolitica [2]; read-out: MIC (mg/L) 50%): 0.03 mg/L (≈ 0.0835 µM) | MIC (Yersinia enterocolitica [2]; read-out: MIC (mg/L) 90%): 0.03 mg/L (≈ 0.0835 µM)

C[C@H]1COc2c(N3CCN(C)CC3)c(F)cc3c(=O)c(C(=O)O)cn1c23 [Levofloxacin, levofloxacin]
% Susceptible (Yersinia enterocolitica [1]): 100% | MIC50 (Yersinia enterocolitica [1]): 0.06 µg/mL (≈ 0.166 µM) | MIC90 (Yersinia enterocolitica [1]): 0.06 µg/mL (≈ 0.166 µM) | MIC Range (Yersinia enterocolitica [1]): 0.03 to 0.5 µg/mL | MIC Range (Moraxella catarrhalis): ≤0.004 to 0.03 µg/mL | MIC90 (Moraxella catarrhalis; read-out: MIC90): 0.03 µg/mL (≈ 0.083 µM) | MIC (Staphylococcus aureus [3]; Staphylococcus aureus (n = 50)): 0.03 to 2 µg/mL (≈ 0.083 to 5.53 µM) | MIC50 (Staphylococcus aureus [3]; Staphylococcus aureus (n = 50)): 1 µg/mL (≈ 2.77 µM) | MIC90 (Staphylococcus aureus [3]; Staphylococcus aureus (n = 50)): 2 µg/mL (≈ 5.53 µM) | MIC (Staphylococcus aureus [3]; β-lactamase negative (n = 20)): 0.03 to 2 µg/mL (≈ 0.083 to 5.53 µM) | MIC50 (Staphylococcus aureus [3]; β-lactamase negative (n = 20)): 2 µg/mL (≈ 5.53 µM) | MIC90 (Staphylococcus aureus [3]; β-lactamase negative (n = 20)): 2 µg/mL (≈ 5.53 µM) | MIC (Staphylococcus aureus [3]; β-lactamase positive (n = 20)): 1 to 2 µg/mL (≈ 2.77 to 5.53 µM) | MIC50 (Staphylococcus aureus [3]; β-lactamase positive (n = 20)): 1 µg/mL (≈ 2.77 µM) | MIC90 (Staphylococcus aureus [3]; β-lactamase positive (n = 20)): 2 µg/mL (≈ 5.53 µM) | MIC50 (Staphylococcus aureus [3]; [6]): 1 µg/mL (≈ 2.77 µM) | MIC90 (Staphylococcus aureus [3]; [6]): 2 µg/mL (≈ 5.53 µM) | MIC Range (Staphylococcus aureus [4]; Staphylococcus aureus oxacillin susceptible (n=41)): 0.125 to 1 µg/mL | MIC50 (Staphylococcus aureus [4]; [7]): 4 µg/mL (≈ 11.1 µM) | MIC90 (Staphylococcus aureus [4]; [7]): 64 µg/mL (≈ 177 µM) | MIC50 (Staphylococcus aureus [4]; Staphylococcus aureus, Staphylococcus aureus oxacillin susceptible (n=41)): 0.25 µg/mL (≈ 0.692 µM) | MIC (Staphylococcus aureus [4]; Staphylococcus aureus, strain TMS3): > 128 µg/mL | MIC (Staphylococcus aureus [4]; Staphylococcus aureus, strain TMS4): 16 µg/mL (≈ 44.3 µM) | MIC (Staphylococcus aureus [4]; Staphylococcus aureus, strain TMS5): 4 µg/mL (≈ 11.1 µM) | MIC (Staphylococcus aureus [4]; Staphylococcus aureus, strain TMS6): 2 µg/mL (≈ 5.53 µM) | MIC Range (Streptococcus pneumoniae; [8]): 0.5 to 8 µg/mL | MIC Range (Streptococcus pneumoniae; [9]): 0.063 to 8 µg/mL | MIC Range (Streptococcus pneumoniae; [10]): 0.063 to 8 µg/mL | MIC Range (Streptococcus pneumoniae; [11]): 0.5 to 1 µg/mL | MIC50 (Streptococcus pneumoniae; [8]): 1 µg/mL (≈ 2.77 µM) | MIC90 (Streptococcus pneumoniae; [8]): 1 µg/mL (≈ 2.77 µM) | MIC50 (Streptococcus pneumoniae; [9]): 1 µg/mL (≈ 2.77 µM) | MIC90 (Streptococcus pneumoniae; [9]): 1 µg/mL (≈ 2.77 µM) | MIC50 (Streptococcus pneumoniae; [10]): 1 µg/mL (≈ 2.77 µM) | MIC90 (Streptococcus pneumoniae; [10]): 1 µg/mL (≈ 2.77 µM) | MIC50 (Streptococcus pneumoniae; [11]): 1 µg/mL (≈ 2.77 µM) | MIC90 (Streptococcus pneumoniae; [11]): 1 µg/mL (≈ 2.77 µM) | MIC (Streptococcus pneumoniae; strain TMS1): 1 µg/mL (≈ 2.77 µM) | MIC (Streptococcus pneumoniae; strain TMS2): 16 µg/mL (≈ 44.3 µM) | MIC90 (Proteus vulgaris; Proteus vulgaris): 0.125 µg/mL (≈ 0.346 µM) | MIC Range (Proteus vulgaris; Proteus vulgaris (n=25)): 0.032 to 1 µg/mL | MIC50 (Proteus vulgaris; Proteus vulgaris (n=25), read-out: MIC50): 0.063 µg/mL (≈ 0.174 µM) | MIC50 (Providencia rettgeri; Providencia rettgeri): 0.125 µg/mL (≈ 0.346 µM) | MIC90 (Providencia rettgeri; Providencia rettgeri (n=12)): 8 µg/mL (≈ 22.1 µM) | MIC Range (Providencia rettgeri; Providencia rettgeri (n=12)): 0.125 to 8 µg/mL | MIC (Yersinia enterocolitica [2]; [5]): 0.03 to 0.5 mg/L (≈ 0.083 to 1.38 µM) | MIC (Yersinia enterocolitica [2]; read-out: MIC (mg/L) 50%): 0.06 mg/L (≈ 0.166 µM) | MIC (Yersinia enterocolitica [2]; read-out: MIC (mg/L) 90%): 0.06 mg/L (≈ 0.166 µM)
